The cell lines below were run with C[C@@]1(C(=O)Nc2ccc(F)nc2)CCCN1c1nc(Nc2cc(C3CC3)n[nH]2)c2cccn2n1 + Cc1cc(Nc2cc(N3CCN(C)CC3)nc(Sc3ccc(NC(=O)C4CC4)cc3)n2)n[nH]1 [Tozasertib] (partner 0.1 µM) (assay: relative viability (nuclei count vs DMSO), 5 days (fraction); higher = more cells survive). Settings: first compound 0.04 µM.
Outline: (§1)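 One day after seeding in 1536-well plates, lung cancer cell lines were dosed by pin tool. Dosing was either single-drug or a fixed anchor-drug dose plus five library-drug doses (not always all listed) in √10 steps. After 5 days, nuclei were stained in one fix-and-stain step and counted on 4× images, and relative viability is the nuclei count of treated wells over that of vehicle wells, given as the median of duplicate plates.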
NCI-H2342 showed a relative viability of 0.534. Work on NCI-H1623 yielded a relative viability of 0.391. NCI-H727 gave a relative viability of 0.525. With NCI-H1650 the relative viability was 0.345. In the case of NCI-H1993, the relative viability was 0.556. Work on SW 1573 yielded a relative viability of 0.15. NCI-H838 was tested, and the relative viability was 0.249. Work on LCLC-103H yielded a relative viability of 0.474. NCI-H520 showed a relative viability of 0.48. NCI-H2126 gave a relative viability of 0.677. With EMC-BAC-2 the relative viability was 0.25. NCI-H2085 showed a relative viability of 0.892. In the case of HCC-366, the relative viability was 0.677. Cell Line NCI-H1666 has a relative viability of 0.623. NCI-H596 gave a relative viability of 0.883. With LK-2 the relative viability was 0.178. With NCI-H2087 the relative viability was 0.231. For NCI-H1648, the relative viability was 0.449. Cell Line SK-MES-1 has a relative viability of 0.979. H3255 gave a relative viability of 0.695. In the case of COR-L23, the relative viability was 0.195. Work on COR-L 105 yielded a relative viability of 0.373. LOU-NH91 gave a relative viability of 0.641. Cell Line ChaGo-K-1 has a relative viability of 0.209. With NCI-H2170 the relative viability was 0.671. NCI-H2405 showed a relative viability of 0.659. HOP-62 gave a relative viability of 0.371. HCC-44 gave a relative viability of 0.858. NCI-H522 gave a relative viability of 0.571. Work on LU99A yielded a relative viability of 0.237. With BEN the relative viability was 0.551. HARA gave a relative viability of 0.367. Work on SW 900 yielded a relative viability of 0.525. For HCC-78, the relative viability was 0.37. Work on NCI-H322M yielded a relative viability of 0.464.

Same assay, conditions: first compound 0.1265 µM
Work on NCI-H2342 yielded a relative viability of 0.453. Work on NCI-H1623 yielded a relative viability of 0.397. With NCI-H727 the relative viability was 0.355. Work on NCI-H1650 yielded a relative viability of 0.29. NCI-H1993 gave a relative viability of 0.502. Work on SW 1573 yielded a relative viability of 0.16. Work on NCI-H838 yielded a relative viability of 0.221. Cell Line LCLC-103H has a relative viability of 0.472. Work on NCI-H2126 yielded a relative viability of 0.366. In the case of EMC-BAC-2, the relative viability was 0.277. Work on NCI-H2085 yielded a relative viability of 0.795. HCC-366 was tested, and the relative viability was 0.102. In the case of NCI-H1666, the relative viability was 0.558. NCI-H596 gave a relative viability of 0.748. Cell Line LK-2 has a relative viability of 0.169. NCI-H2087 showed a relative viability of 0.28. SK-MES-1 gave a relative viability of 0.968. In the case of H3255, the relative viability was 0.781. For COR-L23, the relative viability was 0.23. In the case of COR-L 105, the relative viability was 0.332. LOU-NH91 was tested, and the relative viability was 0.635. Cell Line ChaGo-K-1 has a relative viability of 0.197. NCI-H2170 showed a relative viability of 0.791. For NCI-H2405, the relative viability was 0.65. HOP-62 showed a relative viability of 0.393. Work on HCC-44 yielded a relative viability of 0.616. With NCI-H522 the relative viability was 0.459. LU99A showed a relative viability of 0.222. Work on BEN yielded a relative viability of 0.529. HARA showed a relative viability of 0.103. With SW 900 the relative viability was 0.551. Work on HCC-78 yielded a relative viability of 0.27. With NCI-H322M the relative viability was 0.347.

Same assay, conditions: first compound 0.4 µM
NCI-H2342 gave a relative viability of 0.346. NCI-H1623 showed a relative viability of 0.349. NCI-H727 was tested, and the relative viability was 0.352. NCI-H1650 showed a relative viability of 0.258. For NCI-H1993, the relative viability was 0.55. SW 1573 gave a relative viability of 0.172. NCI-H838 was tested, and the relative viability was 0.166. LCLC-103H gave a relative viability of 0.394. NCI-H520 showed a relative viability of 0.442. For NCI-H2126, the relative viability was 0.441. With EMC-BAC-2 the relative viability was 0.215. In the case of NCI-H2085, the relative viability was 0.664. Work on HCC-366 yielded a relative viability of 0.0503. Cell Line NCI-H1666 has a relative viability of 0.465. Work on NCI-H596 yielded a relative viability of 0.683. Cell Line LK-2 has a relative viability of 0.187. NCI-H2087 was tested, and the relative viability was 0.159. SK-MES-1 showed a relative viability of 0.8. For H3255, the relative viability was 0.656. For COR-L23, the relative viability was 0.131. With COR-L 105 the relative viability was 0.426. Cell Line LOU-NH91 has a relative viability of 0.56. Work on ChaGo-K-1 yielded a relative viability of 0.201. In the case of NCI-H2170, the relative viability was 0.636. With NCI-H2405 the relative viability was 0.5. HOP-62 gave a relative viability of 0.298. With HCC-44 the relative viability was 0.574. Cell Line NCI-H522 has a relative viability of 0.537. LU99A was tested, and the relative viability was 0.234. Cell Line BEN has a relative viability of 0.517. In the case of HARA, the relative viability was 0.0758. In the case of SW 900, the relative viability was 0.464. In the case of HCC-78, the relative viability was 0.308. NCI-H322M gave a relative viability of 0.361.

Same assay, conditions: first compound 1.265 µM
Cell Line NCI-H2342 has a relative viability of 0.499. NCI-H1623 showed a relative viability of 0.371. With NCI-H727 the relative viability was 0.379. NCI-H1650 was tested, and the relative viability was 0.255. With NCI-H1993 the relative viability was 0.549. Cell Line SW 1573 has a relative viability of 0.182. In the case of NCI-H838, the relative viability was 0.259. LCLC-103H showed a relative viability of 0.473. For NCI-H520, the relative viability was 0.423. NCI-H2126 showed a relative viability of 0.337. With EMC-BAC-2 the relative viability was 0.201. Work on NCI-H2085 yielded a relative viability of 0.92. Work on HCC-366 yielded a relative viability of 0.637. NCI-H1666 was tested, and the relative viability was 0.415. Cell Line NCI-H596 has a relative viability of 0.71. With LK-2 the relative viability was 0.175. Work on NCI-H2087 yielded a relative viability of 0.209. With NCI-H1648 the relative viability was 0.336. Work on SK-MES-1 yielded a relative viability of 0.207. H3255 showed a relative viability of 0.582. With COR-L23 the relative viability was 0.107. COR-L 105 was tested, and the relative viability was 0.3. With LOU-NH91 the relative viability was 0.447. With ChaGo-K-1 the relative viability was 0.207. Cell Line NCI-H2170 has a relative viability of 0.559. NCI-H2405 was tested, and the relative viability was 0.409. Cell Line HOP-62 has a relative viability of 0.337. For HCC-44, the relative viability was 0.362. NCI-H522 was tested, and the relative viability was 0.562. LU99A gave a relative viability of 0.182. BEN was tested, and the relative viability was 0.501. HARA gave a relative viability of 0.79. SW 900 was tested, and the relative viability was 0.29. Cell Line HCC-78 has a relative viability of 0.33. Work on NCI-H322M yielded a relative viability of 0.391.

The cell lines below were run with CC1(C)CNc2cc(NC(=O)c3cccnc3NCc3ccncc3)ccc21 [Motesanib] + CCNC(=O)c1noc(-c2cc(C(C)C)c(O)cc2O)c1-c1ccc(CN2CCOCC2)cc1 [Luminespib] (partner 0.01 µM) in the same assay as above. Settings: first compound 0.01 µM.
Outline: as §1
NCI-H2342 showed a relative viability of 0.647. NCI-H1623 showed a relative viability of 0.605. For NCI-H727, the relative viability was 0.292. NCI-H1650 gave a relative viability of 0.181. With NCI-H1993 the relative viability was 0.923. With SW 1573 the relative viability was 0.152. NCI-H838 gave a relative viability of 0.316. LCLC-103H showed a relative viability of 0.92. Cell Line NCI-H520 has a relative viability of 0.22. NCI-H2126 was tested, and the relative viability was 0.9. For EMC-BAC-2, the relative viability was 1.2. NCI-H2085 showed a relative viability of 0.47. In the case of NCI-H1666, the relative viability was 1.05. For NCI-H596, the relative viability was 1.17. Work on LK-2 yielded a relative viability of 0.213. NCI-H2087 gave a relative viability of 0.159. SK-MES-1 showed a relative viability of 0.84. H3255 was tested, and the relative viability was 0.872. COR-L23 showed a relative viability of 0.605. For COR-L 105, the relative viability was 0.737. Cell Line LOU-NH91 has a relative viability of 0.38. Cell Line ChaGo-K-1 has a relative viability of 0.525. NCI-H2170 showed a relative viability of 0.628. In the case of HOP-62, the relative viability was 0.942.
